Measurements taken from US4556713A, “6-Fluoro-5-nitroquinaldine” (Riker Laboratories, Inc., priority 1984, dated 1985).
≈ marks a conversion by molar mass, not a printed value. Like-named read-outs stand apart in the source and are kept apart here.

Legend:
ENTEROCOCCUS = assay: Plate dilution antimicrobial susceptibility, Enterococcus; settings: for MIC: 24 h
Description: (§1) Tryptone soy agar (oxoid) of the following composition is the culture medium.
(§2) A series of plates with these concentrations is prepared. Ten percent horse serum is added to one series of such plates. Aliquots of broth culture of any of twelve species of microorganisms are innoculated onto the agar plates contaning the various compound concentrations. The plates are incubated at 37° C. in a 10 percent carbon dioxide atmosphere for 18 to 24 hours. The microbial growth on each plate is read visually, and minimal inhibitory concentrations are recorded.
(§3) The tests were run both in the absence and in the presence of horse serum as described hereinabove.

Escherichia coli = assay: Plate dilution antimicrobial susceptibility, Escherichia coli; settings: for MIC: 24 h, read-out: Minimum Inhibitory Concentration
Description: as §1, §2, §3

Staphylococcus aureus = assay: Plate dilution antimicrobial susceptibility, Staphylococcus aureus; settings: for MIC: 24 h, read-out: Minimum Inhibitory Concentration
Description: as §1, §2, §3

Pseudomonas aeruginosa = assay: Plate dilution antimicrobial susceptibility, Pseudomonas aeruginosa; settings: for MIC: 24 h, read-out: Minimum Inhibitory Concentration
Description: as §1, §2, §3

Klebsiella pneumoniae = assay: Plate dilution antimicrobial susceptibility, Klebsiella pneumoniae; settings: for MIC: 24 h, read-out: Minimum Inhibitory Concentration
Description: as §1, §2, §3

STREP. SPECIES = assay: Plate dilution antimicrobial susceptibility, Strep. species; settings: for MIC: 24 h, read-out: Minimum Inhibitory Concentration, Strep. species; for Minimum Inhibitory Concentration: Strep. species
Description: as §1, §2, §3

[1] = test system: gram-positive and gram-negative microorganisms; assay: Plate dilution method, antimicrobial activity in general (gram-positive and gram-negative microorganisms); type: cell-based; settings: in vitro
[2] = presence of 10 percent horse serum
[3] = read-out: Minimum Inhibitory Concentration, Enterococcus, absence of horse serum
[4] = read-out: Minimum Inhibitory Concentration, Enterococcus, presence of 10 percent horse serum

Row | SMILES | Minimum Inhibitory Concentration (ENTEROCOCCUS; [2]) | Minimum Inhibitory Concentration (Escherichia coli; [2]) | Minimum Inhibitory Concentration (Staphylococcus aureus; [2]) | Minimum Inhibitory Concentration (Pseudomonas aeruginosa; [2]) | Minimum Inhibitory Concentration (Klebsiella pneumoniae; [2]) [mg/L] | Minimum Inhibitory Concentration (ENTEROCOCCUS; absence of horse serum) | Minimum Inhibitory Concentration (Escherichia coli; absence of horse serum) [mg/L] | Minimum Inhibitory Concentration (Staphylococcus aureus; absence of horse serum) | Minimum Inhibitory Concentration (Klebsiella pneumoniae; absence of horse serum) [mg/L] | Minimum Inhibitory Concentration (Pseudomonas aeruginosa; absence of horse serum) | Minimum Inhibitory Concentration (STREP. SPECIES; absence of horse serum) | Minimum Inhibitory Concentration (STREP. SPECIES; [2]) | other results
1 | CC1CCc2c(Br)c(F)cc3c(=O)c(C(=O)[O-])cn1c23.[Na+] (stereo not shown) [8-Br, 9-F sodium salt, sodium 8-bromo-6,7-dihydro-9-fluoro-5-methyl-1-oxo-1H,5H-benzo[ij]quinolizine-2-carboxylate] | 1 mg/L | .1 mg/L | .1 mg/L | 10 mg/L | – | – | – | – | – | – | – | – | –
2 | CC1CCc2c(Br)c(F)cc3c(=O)c(C(=O)O)cn1c23 (stereo not shown) [8-Br, 9-F, 8-bromo-6,7-dihydro-9-fluoro-5-methyl-1-oxo-1H,5H-benzo[ij]quinolizine-2-carboxylic acid] | – | .1 mg/L | .1 mg/L | 10 mg/L | 1 | – | – | – | – | – | – | – | MIC (ENTEROCOCCUS; [3]): 1 µg/mL (≈ 2.94 µM); MIC (ENTEROCOCCUS; [4]): 1 µg/mL; MIC (Escherichia coli): 0.1 µg/mL (≈ 0.294 µM); MIC (Staphylococcus aureus): 0.1 µg/mL (≈ 0.294 µM); MIC (Klebsiella pneumoniae): 1 µg/mL (≈ 2.94 µM); MIC (Pseudomonas aeruginosa): 10 µg/mL (≈ 29.4 µM); MIC (STREP. SPECIES; absence of horse serum): 1 µg/mL (≈ 2.94 µM); MIC (STREP. SPECIES; [2]): 10 µg/mL
3 | Cc1cc2c(=O)c(C(=O)O)cn3c2c(c1Cl)CCC3C (stereo not shown) [8-Cl, 9-CH3] | I | 10 mg/L | 100 mg/L | I | 100 | 100 mg/L | 10 | 10 mg/L | 100 | 100 mg/L | 100 mg/L | 100 mg/L | –
4 | CC1CCc2c(Cl)c(F)cc3c(=O)c(C(=O)[O-])cn1c23.[Na+] (stereo not shown) [8-Cl, 9-F sodium salt, sodium 8-chloro-6,7-dihydro-9-fluoro-5-methyl-1-oxo-1H,5H-benzo[ij]quinolizine-2-carboxylate] | 1 mg/L | – | – | 10 mg/L | 1 | – | – | – | – | – | – | – | –
5 | CC1CCc2c(Cl)c(F)cc3c(=O)c(C(=O)O)cn1c23 (stereo not shown) [8-Cl, 9-F, 8-chloro-6,7-dihydro-9-fluoro-5-methyl-1-oxo-1H,5H-benzo[ij]quinolizine-2-carboxylic acid] | – | .1 mg/L | – | 10 mg/L | 1 | – | – | – | – | – | – | – | MIC (ENTEROCOCCUS; [3]): 1 µg/mL (≈ 3.38 µM); MIC (ENTEROCOCCUS; [4]): 10 µg/mL; MIC (Escherichia coli): 0.1 µg/mL (≈ 0.338 µM); MIC (Staphylococcus aureus): 0.1 µg/mL (≈ 0.338 µM); MIC (Klebsiella pneumoniae): 1 µg/mL (≈ 3.38 µM); MIC (Pseudomonas aeruginosa): 10 µg/mL (≈ 33.8 µM); MIC (STREP. SPECIES; [2]): 10 µg/mL
6 | COc1cc2c(=O)c(C(=O)O)cn3c2c(c1Cl)CCC3C (stereo not shown) [8-Cl, 9-OCH3] | 100 mg/L | 10 mg/L | 10 mg/L | I | 100 | 100 mg/L | 10 | 10 mg/L | 100 | I | 100 mg/L | 100 mg/L | –
7 | CC1CCc2c(N)c(Cl)cc3c(=O)c(C(=O)O)cn1c23 (stereo not shown) [8-NH2,9-Cl] | I | 10 mg/L | 100 mg/L | I | 100 | I | 10 | 100 mg/L | 100 | I | I | I | –
8 | CC(=O)Nc1c(Cl)cc2c(=O)c(C(=O)O)cn3c2c1CCC3C (stereo not shown) [8-NHCOCH3, 9-Cl] | I | 10 mg/L | I | I | 100 | I | 10 | I | 100 | I | I | I | –
9 | CC1CCc2c(N)c(F)cc3c(=O)c(C(=O)O)cn1c23 (stereo not shown) [8-amino compound, 8-amino-6,7-dihydro-9-fluoro-5-methyl-1-oxo-1H,5H-benzo[ij]quinolizine-2-carboxylic acid] | – | – | – | – | – | – | – | – | – | – | – | – | antimicrobial activity (in words) [1]: good antimicrobial activity against many species of microorganisms
10 | CC1CCc2c(Cl)ccc3c(=O)c(C(=O)O)cn1c23 (stereo not shown) [Example 8-Cl] | 10 mg/L | 1 mg/L | 1 mg/L | 100 mg/L | 10 | 10 mg/L | 1 | 1 mg/L | 10 | 100 mg/L | 10 mg/L | 100 mg/L | –
11 | CC1CCc2cc(Br)cc3c(=O)c(C(=O)O)cn1c23 (stereo not shown) [Example 9-Br] | – | 10 mg/L | 100 mg/L | I | – | – | 10 | 100 mg/L | – | I | 100 mg/L | 100 mg/L | –
12 | CC1CCc2cc(Cl)cc3c(=O)c(C(=O)O)cn1c23 (stereo not shown) [Example 9-Cl] | – | 1 mg/L | 10 mg/L | I | – | – | 1 | 10 mg/L | – | I | 100 mg/L | 100 mg/L | –
13 | CC1CCc2cc(F)cc3c(=O)c(C(=O)O)cn1c23 (stereo not shown) [Example 9-F] | 100 mg/L | 1 mg/L | 10 mg/L | 100 mg/L | 1 | 100 mg/L | 1 | 10 mg/L | 1 | 100 mg/L | 100 mg/L | 100 mg/L | –
